Data on 1 molecule can be found in paper PMC6934184, “Selective DNA-PKcs inhibition extends the therapeutic index of localized radiotherapy and chemotherapy” (The Journal of Clinical Investigation, 2019).

The target in this experiment is T1, FRK (PTK5) (Homo sapiens, UniProt P42685).
T1 construct: purchased Thermo Fisher Scientific (Life Technologies) SelectScreen
The experiment in a line: SelectScreen Z'LYTE. It counts as biochemical. Summed up:
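Percent values come from Thermo SelectScreen profiling of NU5455, combining activity and binding assays. CSF1R was run in Z'LYTE format at Km app ATP, and CAMK1 in Adapta format with ATP listed at 10.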

T1 sequence (P42685 whole entry): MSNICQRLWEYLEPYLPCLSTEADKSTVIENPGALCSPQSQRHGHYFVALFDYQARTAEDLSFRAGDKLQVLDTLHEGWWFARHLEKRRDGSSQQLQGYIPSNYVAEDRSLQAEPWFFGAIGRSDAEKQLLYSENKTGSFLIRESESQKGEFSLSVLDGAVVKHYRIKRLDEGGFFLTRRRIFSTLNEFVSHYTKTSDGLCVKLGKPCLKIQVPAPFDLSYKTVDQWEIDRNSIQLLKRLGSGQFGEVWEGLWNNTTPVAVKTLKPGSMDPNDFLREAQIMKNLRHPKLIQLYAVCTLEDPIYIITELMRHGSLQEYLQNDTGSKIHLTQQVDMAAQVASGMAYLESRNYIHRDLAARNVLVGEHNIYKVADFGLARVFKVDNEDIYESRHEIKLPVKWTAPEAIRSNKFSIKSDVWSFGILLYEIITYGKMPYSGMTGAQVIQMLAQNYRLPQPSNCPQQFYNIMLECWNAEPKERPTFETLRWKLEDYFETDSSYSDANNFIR

With `CN(C(=O)CN1CCOCC1)c1ccc2sc3c(-c4cccc5c(=O)cc(N6CC7CCC(C6)O7)oc45)cccc3c2c1` [NU5455], at 1 µM the inhibition was 3.4%.
